pIC50: −log10 of the molar value.

One may read the pIC50 as the negative decadic logarithm of the IC50, by convention in mol/L. Lower therefore signals a large IC50.

Chain of Rho kinase (fused protein of bovine Rho kinase catalyst region and glutathione S-transferase) (Q28021 92-354 limits assumed): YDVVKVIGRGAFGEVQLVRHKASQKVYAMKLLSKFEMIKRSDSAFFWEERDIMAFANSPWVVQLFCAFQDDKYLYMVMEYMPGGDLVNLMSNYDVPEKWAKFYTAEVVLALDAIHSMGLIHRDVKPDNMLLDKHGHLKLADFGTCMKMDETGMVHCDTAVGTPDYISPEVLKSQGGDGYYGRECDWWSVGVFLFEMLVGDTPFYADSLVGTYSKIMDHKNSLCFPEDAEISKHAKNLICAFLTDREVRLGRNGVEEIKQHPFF

The target of this assay is Rho kinase (fused protein of bovine Rho kinase catalyst region and glutathione S-transferase) (Bos taurus, UniProt Q28021). Nature of the assay: Rho kinase inhibitory activity (phosphorylation of S6 231–239 substrate, γ32P-ATP). In kind it is biochemical. The note with it: concentration inhibiting substrate phosphorylation by 50%. How it is done:
This permits the substrate to be labeled with the radioisotope.
Thereafter, the substrate was adsorbed to a filter paper. ATP was washed away with a phosphoric acid solution, and the amount of the phosphorylated substrate was then measured with a liquid scintillation counter.
In turn, `O=C(CC1CCCCC1)Nc1ccc2[nH]ncc2c1` [Example 34, N1-(1H-5-Indazoyl)-1-cyclohexylacetamide] had a pIC50 of 6.06.
On to `O=C(/C=C/c1ccccc1O)Nc1ccc2[nH]ncc2c1` [Example 35, N1-(1H-5-Indazolyl)-(E)-3-(2-hydroxyphenyl)-2-propeneamide], for which the pIC50 was 5.89.
Molecule `O=C(/C=C/c1cccc(O)c1)Nc1ccc2[nH]ncc2c1` [Example 36, N1-(1H-5-Indazolyl)-(E)-3-(3-hydroxyphenyl)-2-propeneamide] had a pIC50 of 6.22.
Turning to `O=C(/C=C/c1ccc(O)cc1)Nc1ccc2[nH]ncc2c1` [Example 37, N1-(1H-5-Indazolyl)-(E)-3-(4-hydroxyphenyl)-2-propeneamide], the pIC50 was 6.52.
Regarding `O=C(/C=C/c1ccc(O)c(O)c1)Nc1ccc2[nH]ncc2c1` [Example 38, N1-(1H-5-Indazolyl)-(E)-3-(3,4-dihydroxyphenyl)-2-propeneamide], the pIC50 was 6.97.
`O=C(Cc1ccc([N+](=O)[O-])cc1[N+](=O)[O-])Nc1ccc2[nH]ncc2c1` [Example 39, N1-(1H-5-Indazolyl)-2-(2,4-dinitrophenyl)acetamide] showed a pIC50 of 6.91.
As to `COc1cc(/C=C/C(=O)Nc2ccc3[nH]ncc3c2)ccc1O` [Example 40, N1-(1H-5-Indazolyl)-(E)-3-(4-hydroxy-3-methoxyphenyl)-2-propeneamide], the pIC50 was 6.64.
As for `COc1ccc(/C=C/C(=O)Nc2ccc3[nH]ncc3c2)cc1O` [Example 41, N1-(1H-5-Indazolyl)-(E)-3-(3-hydroxy-4-methoxyphenyl)-2-propeneamide], the pIC50 is 6.65.
On to `COc1ccc(/C=C/C(=O)Nc2ccc3[nH]ncc3c2)cc1OC` [Example 42, N1-(1H-5-Indazolyl)-(E)-3-(3,4-dimethoxyphenyl)-2-propeneamide], for which the pIC50 was 6.22.
As for `O=C(Cc1ccc(O)c(O)c1)Nc1ccc2[nH]ncc2c1` [Example 44, N1-(1H-5-Indazolyl)-2-(3,4-dihydroxyphenyl)acetamide], the pIC50 was 6.40.
Molecule `O=C(Cc1ccc2c(c1)OCO2)Nc1ccc2[nH]ncc2c1` [Example 45, N1-(1H-5-Indazolyl)-2-(1,3-benzodioxol-5-yl)acetamide] showed a pIC50 of 6.82.
On to `O=C(CCc1ccc(O)cc1)Nc1ccc2[nH]ncc2c1` [Example 47, N1-(1H-5-Indazolyl)-3-(4-hydroxyphenyl)-propaneamide], for which the pIC50 is 6.13.
Molecule `O=C(Cc1cccc([N+](=O)[O-])c1)Nc1ccc2[nH]ncc2c1` [Example 48, N1-(1H-5-Indazolyl)-2-(3-nitrophenyl)acetamide] had a pIC50 of 6.72.
`O=C(Cc1ccc([N+](=O)[O-])cc1)Nc1ccc2[nH]ncc2c1` [Example 49, N1-(1H-5-Indazolyl)-2-(4-nitrophenyl)acetamide] showed a pIC50 of 6.29.
The figure for `O=C(CNc1ccc(O)cc1)Nc1ccc2[nH]ncc2c1` [Example 50, N1-(1H-5-Indazolyl)-2-(4-hydroxyanilino)acetamide] is 6.49; for `O=C(COc1ccc(O)cc1)Nc1ccc2[nH]ncc2c1` [Example 51, N1-(1H-5-Indazolyl)-2-(4-hydroxyphenoxy)acetamide] it is 6.34.
The figure for `O=C(CCc1ccc2c(c1)OCO2)Nc1ccc2[nH]ncc2c1` [Example 52, N1-(1H-5-Indazolyl)-3-(1,3-benzodioxol-5-yl)propaneamide] is 6.64; for `O=C(NCc1ccc(Cl)cc1Cl)Nc1ccncc1` [Example 53, N-(2,4-Dichlorobenzyl)-N′-(4-pyridyl)urea] it is 5.38; for `O=C(NCc1c(Cl)ccc(Cl)c1Cl)Nc1ccncc1` [Example 55, N′-(4-Pyridyl)-N-(2,3,6-trichlorobenzyl)urea] it is 5.98.
`O=C(Nc1ccncc1)Nc1c(F)cc(F)cc1Br` [Example 57] had a pIC50 of 5.95.
To `O=C(Nc1ccncc1)Nc1c(F)cccc1C(F)(F)F` [Example 58] belongs 4.87; to `O=C(Nc1ccncc1)Nc1ccc(F)cc1C(F)(F)F` [Example 59, N-[4-Fluoro-2-(trifluoromethyl)phenyl]-N′-(4-pyridyl)urea], 5.14; to `O=C(Nc1ccncc1)Nc1ccc(Br)cc1F` [Example 60, N-(4-Bromo-2-fluorophenyl)-N′-(4-pyridyl)urea], 4.96.
Take `O=C(NCc1c(F)cccc1F)Nc1ccncc1` [Example 61, N-(2,6-Difluorobenzyl)-N′-(4-pyridyl)urea]: the pIC50 was 5.16.
The figure for `O=C(Nc1ccncc1)Nc1c(Cl)cc(C(F)(F)F)cc1Cl` [Example 63, N-[2,6-Dichloro-4-(trifluoromethyl)phenyl]-N′-(4-pyridyl)urea] is 5.60; for `O=C(NCc1c(F)cccc1C(F)(F)F)Nc1ccncc1` [Example 64, N-[2-Fluoro-6-(trifluoromethyl)benzyl]-N′-(4-pyridyl)urea] it is 5.66.
Take `NC(=O)c1ccc(NC(=O)Nc2c(Cl)cccc2Cl)cc1` [Example 65, 4-{[(2,6-Dichloroanilino)carbonyl]amino}-benzamide]: the pIC50 is 5.05.
Turning to `O=C(Nc1ccncc1)Nc1c[nH]c2ccccc12` [Example 66, N-(1H-3-Indolyl)-N′-(4-pyridyl)urea], the pIC50 was 5.18.
Consider `O=C(Nc1ccc2c(c1)C(=O)NC2=O)Nc1c(Cl)cccc1Cl` [Example 67, N-(2,6-Dichlorophenyl)-N′-(1,3-dioxo-2,3-dihydro-1H-isoindolyl)urea], for which the pIC50 is 5.72.
As to `O=C(NCc1c(Cl)cccc1Cl)Nc1ccc2c(c1)C(=O)NC2=O` [Example 68, N1-(2,6-Dichlorobenzyl)-N′-(1,3-dioxo-2,3-dihydro-1H-5-isoindolyl)urea], the pIC50 is 6.96.
Molecule `O=C(Nc1ccc2c(c1)C(=O)NC2=O)Nc1c[nH]c2ccccc12` [Example 69, N-(1,3-Dioxo-2,3-dihydro-1H-5-isoindolyl)-N′-(1H-3-indolyl)urea] showed a negative-log IC50 (pIC50) of 5.64.
Molecule `O=C(Nc1ccc2c(c1)C(=O)NC2=O)Nc1ccc2[nH]ccc2c1` [Example 70, N-(1,3-Dioxo-2,3-dihydro-1H-5-isoindolyl)-N′-(1H-5-indolyl)urea] gave a pIC50 of 6.40.
Molecule `O=C(Nc1ccccc1)Nc1ccc2c(c1)C(=O)NC2=O` [Example 72, N1-(1,3-Dioxo-2,3-dihydro-1H-5-isoindolyl)-N′-phenylurea] gave a pIC50 of 6.05.
Consider `O=C(NCc1ccccc1)Nc1ccc2c(c1)C(=O)NC2=O` [Example 73, N-Benzyl-N′-(1,3-dioxo-2,3-dihydro-1H-5-isoindolyl)urea], for which the pIC50 was 6.39.
As for `CCCNC(=O)Nc1ccc2c(c1)C(=O)NC2=O` [Example 74, N-(1,3-Dioxo-2,3-dihydro-1H-5-isoindolyl)-N′-propylurea], the pIC50 was 5.08.
To `O=C(NCC1CCCCC1)Nc1ccncc1` [Example 75, N-Cyclohexylmethyl-N′-(4-pyridyl)urea] belongs 5.22.
With `O=C(NCC1CCCCC1)Nc1ccc2c(c1)C(=O)NC2=O` [Example 76, N-Cyclohexylmethyl-N′-(1,3-dioxo-2,3-dihydro-1H-5-isoindolyl)urea], the pIC50 is 5.77.
As for `O=C(NCc1c(F)cc(F)cc1F)Nc1ccncc1` [Example 77, N-(4-Pyridyl)-N′-(2,4,6-trifluorobenzyl)urea], the pIC50 was 5.39.

For the origin of these results see patent publication US7217722B2 (Kirin Beer Kabushiki Kaisha, priority 2000, dated 2007).
